In brackets after ≈: the same amount, converted by molar mass.
Key:
Plasmodium falciparum [1] = experiment: Antiplasmodial activity after 48 hrs against Plasmodium falciparum D6 by [3H]hypoxanthine uptake; assay type: functional, organism-based
Plasmodium falciparum [2] = experiment: Antiplasmodial activity after 48 hrs against Plasmodium falciparum FCR3F86 by [3H]hypoxanthine uptake; assay type: functional, organism-based
Plasmodium falciparum [3] = experiment: Antiplasmodial activity after 48 hrs against Plasmodium falciparum W2 by [3H]hypoxanthine uptake; assay type: functional, organism-based
KB = experiment: Cytotoxicity against human KB cells assessed as [3H]hypoxanthine incorporation after 48 hrs; assay type: functional, cell-based

O=C1C(O)=C([C@H]2CC[C@H](c3ccc(Cl)cc3)CC2)C(=O)c2ccccc21 [ATOVAQUONE]
IC50 (Plasmodium falciparum [1]): 0.0002 µg/mL (≈ 0.000545 µM) | IC50 (Plasmodium falciparum [2]): 0.0004 µg/mL (≈ 0.00109 µM) | IC50 (Plasmodium falciparum [3]): 0.0008 µg/mL (≈ 0.00218 µM) | IC50 (KB): > 5 µg/mL

C[C@H]1C[C@H]2CC(C)(C)C=C3CC[C@H]4[C@@H]([C@@H]1CC[C@]4(C)NC=O)[C@@H]32 (relative stereo)
IC50 (Plasmodium falciparum [2]): > 100 µg/mL

C=C(C)C[C@@H]1C[C@H](C)[C@H]2CC[C@](C)(NC=O)[C@H]3CCC(=C)[C@@H]1[C@H]23 (relative stereo)
IC50 (Plasmodium falciparum [2]): > 90 µg/mL

C[C@@H]1C[C@@H]2C[C@H](C)[C@H]3CC[C@](C)(NC=O)[C@H]4CC[C@@H]([C@@H]2[C@H]34)[C@]1(C)NC=O
IC50 (Plasmodium falciparum [2]): 14.8 µg/mL (≈ 41 µM)

[C-]#[N+][C@]1(C)[C@H](C)C[C@@H]2C[C@H](C)[C@H]3CC[C@](C)(NC=O)[C@H]4CC[C@H]1[C@@H]2[C@H]34
IC50 (Plasmodium falciparum [1]): 0.8 µg/mL (≈ 2.34 µM) | IC50 (Plasmodium falciparum [2]): 0.2 µg/mL (≈ 0.584 µM) | IC50 (Plasmodium falciparum [3]): 0.6 µg/mL (≈ 1.75 µM) | IC50 (KB): > 5 µg/mL

C=C1CC[C@H]2[C@H]3[C@H](CC[C@]2(C)NC=O)[C@@H](C)C[C@H](C=C(C)C)[C@H]13 (relative stereo)
IC50 (Plasmodium falciparum [2]): 63 µg/mL (≈ 200 µM)

Source: ChEMBL document CHEMBL1152320, “Diterpene formamides from the tropical marine sponge Cymbastela hooperi and their antimalarial activity in vitro” (J Nat Prod, 2009)
